In one series the test system is Glioma cells. Description: Human glioma cell vitality (MTT assay). Format: cell-based. The conditions noted are these: read-out: IC50 on glioma cell vitality. The method, then:
Cells were seeded in presence of FBS in 6 wells multiwell with a density of 8×10^4 cells/well. Glioma cells were treated with increased concentrations of compounds and cell viability was assessed by MTT staining.
CBD BDS and isolated CBD, CBG and CBDV were tested.
(In general: Tetrazolium dyes change colour on reduction, which living cells bring about.)

The next series concerns LNCaP. Description: Cell vitality (MTT assay), LNCaP. The format is cell-based. The conditions noted are these: Homo sapiens, read-out: IC50 on cell vitality. The method, then: (§1) Cells were seeded in presence of FBS in 6 wells multiwell with a density of 8×10^4 cells/well (DU-145) or 1×10^5 cells/well (LNCaP). After 7 hours, cells were starved of dihydrotestosterone (DHT) for 15 hours and treated with increased concentrations of compounds for 24 or 48 hours (absence of serum was maintained during the treatments). Cell viability was assessed by MTT staining.
(§2) Phytocannabinoid BDS and their respective isolated phytocannabinoids were tested in both the hormone-insensitive (DU-145) prostate cancer cells and hormone-sensitive (LNCaP) prostate cancer cells. Three different phytocannabinoids were chosen for this experiment: CBG BDS and isolated compound, CBC BDS and isolated compound and CBD BDS and isolated compound.
(§3) The experiment was repeated in the hormone-insensitive (DU-145) prostate cancer cells and hormone-sensitive (LNCaP) prostate cancer cells that had not been starved of DHT. Here just the CBG BDS and isolated CBG are illustrated in Table 7.2 below.

Another series concerns DU-145. Description: Cell vitality (MTT assay), DU-145. To be noted: Homo sapiens, read-out: IC50 on cell vitality. Format: cell-based. The method, then:
as §1, §2, §3

The target in another series is T1, GPR55 (Homo sapiens, UniProt Q9Y2T6).
T1 construct: expressed in transfected cells; host or cells: HEK cells (GPR55-HEK)
T1 sequence (Q9Y2T6 whole entry, species assumed): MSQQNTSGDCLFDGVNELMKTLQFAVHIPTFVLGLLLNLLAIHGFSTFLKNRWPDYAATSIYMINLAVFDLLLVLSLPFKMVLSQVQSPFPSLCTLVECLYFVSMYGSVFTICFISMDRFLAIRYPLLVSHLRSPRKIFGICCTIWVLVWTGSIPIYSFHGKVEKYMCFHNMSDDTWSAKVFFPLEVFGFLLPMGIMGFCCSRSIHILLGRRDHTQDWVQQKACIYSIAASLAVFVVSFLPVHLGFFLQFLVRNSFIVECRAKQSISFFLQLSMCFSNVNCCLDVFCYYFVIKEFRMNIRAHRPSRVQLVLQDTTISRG
Description: ERK Alphascreen assay using GPR55-HEK cells. The format is cell-based. The text has this: An ERK Alphascreen assay was undertaken using GPR55-HEK cells.
On the technique in general: In Alpha technology, singlet oxygen from a donor bead excites a nearby acceptor bead.

For series [1], the system named is Aberrant crypt focus (ACF), polyps and tumours. Description: Colon carcinogenesis in the mouse induced by azoxymethane. Format: in vivo. The conditions noted are these: i.p. three times per week for three months; FIG. 5 c), FIG. 6 c). The text has this:
Aberrant crypt focus (ACF), polyps and tumours were induced in the mouse by the carcinogenic substance azoxymethane. The phytocannabinoids were given (i.p.) to the mice three times per week for a period of three months. The COX-2 inhibitor celecoxib was used as a positive control.

Series [2] relates to subcutaneously implanted U87 human glioma cells. To be noted: s.c., 0.5 mg/mouse; cited from earlier work.
For series [3], the system named is MDA-MB-231 breast cancer cell line. Description: Cell viability of breast cancer cells (Alamar blue assay). The conditions noted are these: Homo sapiens, 72 hours. The format is cell-based. The method, then: Cells were seeded in presence of FBS in 6 wells multiwell and treated with increased concentrations of compounds for 72 hours. Cell viability was assessed by Alamar blue staining.
Isolated phytocannabinoids were tested on the MDA-MB-231 breast cancer cell line in order to determine whether phytocannabinoids were effective in other types of cancer other than prostate cancer. The different isolated phytocannabinoids chosen for this experiment were: CBGA, CBDA, CBDV, CBD, THCV and THC.

Series [4] has as its system human glioma xenograft tumours. Description: Human glioma xenograft tumour volume. The format is in vivo. Also noted: unit not given here. As to the method: The phytocannabinoids were also tested with the TMZ as is detailed in Table 13.2 below.
On the technique in general: A xenograft is tissue or cells of one species grown in another, often human tumour cells in immunodeficient mice.

For series [5], the system named is recurrent glioblastoma multiforme. The conditions noted are these: nine patients, THC intra-tumourally; 95% confidence interval: 15-33; cited from earlier work.
A further series deals with U87 glioma cells. Description: Viability of U87 glioma cells (MTT assay), THC, CBD, TMZ alone and combined. Format: cell-based, human.
Series [6] concerns hormone-sensitive prostate cancer cell line (LNCaP). Description: Subcutaneous xenograft model, hormone-sensitive prostate cancer (LNCaP). Format: in vivo, mice. The conditions noted are these: taxotere 5 mg/kg i.v. weekly, alone. The method, then:
Cancer cells were maintained in vitro in an appropriate culture medium and were harvested, washed in culture medium and re-suspended in matrigel for ready for in vivo administration. 1-2×10^7 cells in 200 μl were injected subcutaneously into the left flank of mice. The mice were anaesthetised and a 0.5 mg 5-alpha-dihydrotestosterone pellet (21-day release) implanted subcutaneously into the scruff of each mouse to encourage tumour growth, and the wound was closed.
Once the implanted tumour volume reached between 100-200 mm (2-3 weeks) mice were allocated to their treatment groups. Treatment commenced on Day 17. The phytocannabinoid BDS was administered i.p. once daily at doses of 1, 10 & 100 mg/kg cannabinoid BDS for a further 25 days.
In a further experiment the chemotherapeutic agent taxotere (5 mg/kg) i.v. was administered weekly, alone or in combination with 100 mg/kg phytocannabinoid BDS.
Mice were evaluated daily by an experienced technician for 4-5 weeks. Tumour dimensions were recorded at day 7 (calliper measurement of length and width and tumour cross-sectional area and volume calculated) and recorded three times weekly and body weight measured weekly.

Like-named read-outs stand apart in the source and are kept apart here.

In general, IC50 refers to the midpoint of a concentration-inhibition curve.

Consider `C=C(C)[C@@H]1CCC(C)=C[C@H]1c1c(O)cc(CCCCC)cc1O` [CBD, Cannabidiol], for which the IC50 in the series with Glioma cells is 8.92 µM; in the series with LNCaP (24 h), 5.3 µM; in the series with LNCaP (48 h), 5.6 µM; in the series with DU-145 (DU-145, 24 h), 5.5 µM; in the series with DU-145 (DU-145, 48 h) it was 4.9 µM; in series [3], 5 µM. The “Effect at GPR55” value on GPR55 is “Antagonist”. Also, the “numbers of tumours per animal” value in series [1] was “significantly reduced the numbers of tumours per animal”. For the same compound, the “growth of subcutaneously implanted U87 human glioma cells” value in [2] is reported as “significantly inhibited the growth”. Moreover, the “Tumour volume (increase from day 1)” value in [4] (dose level 3.7 mg/kg (each)) is 9.1; in series [4] (dose level 7.5 mg/kg (each)), 8.9; in series [4] (dose level 15.0 mg/kg) it was 7.6.
`CCCCCc1cc(O)c2c(c1)OC(C)(C)[C@@H]1CCC(C)=C[C@@H]21` [THC, Tetrahydrocannabinol]: the “Median survival from the beginning of cannabinoid administration” value in series [5] is on record as 24 weeks. Also, the IC50 in [3] was > 10 µM. Further, the “Tumour volume (increase from day 1)” value in series [4] (dose level 3.7 mg/kg (each)) worked out at 8.7; in series [4] (dose level 7.5 mg/kg (each)), 8.5; in series [4] (dose level 15.0 mg/kg), 5.8. In addition, the “Cell Viability (%)” value is on record as 115% in the series with U87 glioma cells (cannabinoid 1 μM (each), Table 12.2); 100% in the series with U87 glioma cells (dose level 0.7 μM (each)); 92% in the series on U87 glioma cells (dose level 0.9 μM (each)); 80% in the series on U87 glioma cells (dose level 1.2 μM (each)).
As to `CC(=O)O[C@@]12CO[C@@H]1C[C@H](O)[C@@]1(C)C(=O)[C@H](O)C3=C(C)[C@@H](OC(=O)[C@H](O)[C@@H](NC(=O)OC(C)(C)C)c4ccccc4)C[C@@](O)([C@@H](OC(=O)c4ccccc4)[C@H]21)C3(C)C` [taxotere], the “growth rate and terminal tumour volume” value in series [6] is “significantly inhibited both growth rate and terminal tumour volume”.

The values are drawn from patent publication US8790719B2, “Phytocannabinoids in the treatment of cancer” (GW Pharma Limited, priority 2010, dated 2014).
